We go through 5 compounds from patent US20130196984A1, “3-AMINO-5-PHENYL-56-DIHYDRO-2H-[1,4]OXAZINES” (Siena Biotech S.p.A., priority 2009, published 2013).

Counter-ions that a name gives are not always drawn.

Assay [1] has as its target T1, BACE2 (Homo sapiens, UniProt Q9Y5Z0).
T1 construct: BACE2 enzyme ectodomain (derived from plasmid “pET17b-T7-hu proBACE2”); T7 (N); made in house
T1 sequence (Q9Y5Z0 63-473 limits assumed): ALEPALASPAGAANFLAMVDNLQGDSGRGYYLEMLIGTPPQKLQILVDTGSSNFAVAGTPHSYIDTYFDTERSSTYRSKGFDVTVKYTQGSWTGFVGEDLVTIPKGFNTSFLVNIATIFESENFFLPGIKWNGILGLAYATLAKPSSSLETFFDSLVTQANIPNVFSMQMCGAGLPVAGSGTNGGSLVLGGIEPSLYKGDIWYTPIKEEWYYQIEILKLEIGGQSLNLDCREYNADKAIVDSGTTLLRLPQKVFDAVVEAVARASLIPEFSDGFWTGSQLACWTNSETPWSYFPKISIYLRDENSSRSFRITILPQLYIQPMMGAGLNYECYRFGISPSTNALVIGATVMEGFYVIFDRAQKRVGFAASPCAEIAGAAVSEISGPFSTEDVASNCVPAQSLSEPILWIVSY
The experiment in a line: Assay A: binding studies using SPR based methods, immobilised BACE2. The settings on record: CM5 chip, immobilised BACE2 enzyme ectodomain, acetate buffer pH 4.6, 4% DMSO.

The target of assay [2] is T2, BACE2 (Rattus norvegicus, UniProt Q6IE75).
T2 construct: endogenous cellular BACE2 in the Ins1e rat cell line; endogenous in cells; host or cells: INS-TMEM27 (INS1e-derived rat cell line with doxycycline-inducible full-length hTMEM27)
T2 sequence (Q6IE75 63-514): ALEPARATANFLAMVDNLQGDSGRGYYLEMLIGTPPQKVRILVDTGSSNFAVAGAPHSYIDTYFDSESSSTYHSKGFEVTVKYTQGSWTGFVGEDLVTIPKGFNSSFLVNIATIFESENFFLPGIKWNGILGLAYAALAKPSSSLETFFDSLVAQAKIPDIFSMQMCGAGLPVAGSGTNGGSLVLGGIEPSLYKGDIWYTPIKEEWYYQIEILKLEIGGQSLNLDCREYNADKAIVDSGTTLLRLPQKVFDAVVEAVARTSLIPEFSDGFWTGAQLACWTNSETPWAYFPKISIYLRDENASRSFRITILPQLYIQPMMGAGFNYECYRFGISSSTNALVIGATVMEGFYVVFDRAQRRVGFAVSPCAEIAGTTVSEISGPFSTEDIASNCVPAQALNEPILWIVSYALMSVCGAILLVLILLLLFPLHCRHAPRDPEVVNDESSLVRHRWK
The experiment in a line: Assay for BACE inhibition by measuring cellular TMEM27 cleavage.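 Further: inhibitor added 2 h before doxycycline-induced hTMEM27 expression, supernatant collected after further 46 h, endogenous BACE2 activity read as reduced TMEM27 shedding.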 It counts as cell-based. The note with it: INS-TMEM27 (INS1e-derived) cells, ELISA of shed human TMEM27 in supernatant.

Assay [3] has as its target T3, BACE1 (Homo sapiens, UniProt P56817). In words: Cellular Abeta-lowering assay. The note with it: HEK293 cells stably transfected with human APP wt (APP695), Aβ40 ELISA of supernatant after 18-20 hrs. Details: endogenous in cells; host or cells: HEK293 stably transfected with human APP695 wt. It counts as cell-based.
For assay [4], the target named is T3, BACE1. In words: Assay A: binding studies using SPR based methods, immobilised BACE1.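 Further: KD from a 1:1 kinetic fit (koff/kon) of real-time association and dissociation curves, or for fast binders from end-of-association equilibrium responses plotted against log concentration.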 The settings on record: CM5 chip, immobilised 6his-tagged full length BACE 1, acetate buffer pH 4.6, 4% DMSO. Also on record: 6his-tagged full length BACE 1 expressed in SF9 cells; 6His; made in house; host or cells: SF9 insect cells.

T3 sequence (P56817 46-501): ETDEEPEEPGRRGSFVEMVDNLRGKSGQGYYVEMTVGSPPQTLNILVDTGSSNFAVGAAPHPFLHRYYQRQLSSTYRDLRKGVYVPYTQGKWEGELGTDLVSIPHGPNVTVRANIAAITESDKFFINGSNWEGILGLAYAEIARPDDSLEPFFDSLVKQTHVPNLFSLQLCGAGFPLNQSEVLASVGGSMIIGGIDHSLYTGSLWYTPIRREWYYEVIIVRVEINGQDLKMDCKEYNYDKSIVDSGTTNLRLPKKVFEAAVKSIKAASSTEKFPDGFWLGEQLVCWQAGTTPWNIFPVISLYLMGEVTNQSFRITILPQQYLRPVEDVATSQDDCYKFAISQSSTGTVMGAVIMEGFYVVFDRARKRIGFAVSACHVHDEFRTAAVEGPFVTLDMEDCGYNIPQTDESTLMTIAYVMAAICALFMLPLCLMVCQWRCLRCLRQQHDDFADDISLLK

Consider `CC(C)(F)C(=O)Nc1ccc(F)c([C@]2(C)COCC(N)=N2)c1` [Example 92, N-[3-((R)-5-amino-3-methyl-3,6-dihydro-2H-[1,4]oxazin-3-yl)-4-fluoro-phenyl]-2-fluoro-2-methyl-propionamide formate], for which the results for the Kd in assay [1] and in assay [4] were 1070 nM and 2220 nM, respectively. In addition, the values for the 50% inhibitory concentration (IC50) in assay [2] and in assay [3] were 1090 nM and 400 nM, respectively.
The matching figures for `CC(=O)Nc1ccc(F)c([C@]2(C)COCC(N)=N2)c1` [Example 93, N-[3-((R)-5-amino-3-methyl-3,6-dihydro-2H-[1,4]oxazin-3-yl)-4-fluoro-phenyl]-acetamide formate]: 3850 nM, above 10000 nM, 3390 nM and 6820 nM.
The matching figures for `CCC(=O)Nc1ccc(F)c([C@]2(C)COCC(N)=N2)c1` [Example 94, N-[3-((R)-5-amino-3-methyl-3,6-dihydro-2H-[1,4]oxazin-3-yl)-4-fluoro-phenyl]-propionamide formate]: 1950 nM, 2700 nM, 1080 nM and 1400 nM.
The matching figures for `Cc1cc(Cl)cnc1C(=O)Nc1ccc(F)c([C@]2(C)COCC(N)=N2)c1` [Example 98, 5-chloro-3-methyl-pyridine-2-carboxylic acid [3-((R)-5-amino-3-methyl-3,6-dihydro-2H-[1,4]oxazin-3-yl)-4-fluoro-phenyl]-amide]: 4 nM, 14 nM, 1 nM and 7 nM.
Turning to `C[C@@]1(c2cc(NC(=O)c3ccc(F)cn3)ccc2F)COCC(N)=N1` [Example 99, 5-fluoro-pyridine-2-carboxylic acid [3-((R)-5-amino-3-methyl-3,6-dihydro-2H-[1,4]oxazin-3-yl)-4-fluoro-phenyl]-amide], the results for the dissociation constant (Kd) in assay [1] and in assay [4] were 8 nM and 46 nM, respectively. For the same compound, the half-maximal inhibitory concentration (IC50) in assay [2] came out at 3 nM; in assay [3], 17 nM.
